Data reported in ChEMBL document CHEMBL1201862, “PubChem BioAssay data set” (2004).
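Cultured in 96-well plates, cells were exposed to test compound for 48 hours across five concentrations. The concentration for 50% growth inhibition is given as GI50.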 Active and inactive are the calls of the source. Cut-off read from the data, not from the text of the source: active = GI50 up to about 1.1 µM and inactive = higher.

How the values were obtained:
Assay in all cases: NCI anticancer screen, dose series, 48 h
786-0 = test system: 786-0
A498 = test system: A498
A549 = test system: A549
ACHN = test system: ACHN
BT-549 = test system: BT-549
CAKI-1 = test system: CAKI-1
COLO 205 = test system: COLO 205
DU-145 = test system: DU-145
EKVX = test system: EKVX
HCC 2998 = test system: HCC 2998
HCT-116 = test system: HCT-116
HCT-15 = test system: HCT-15
HL-60 = test system: HL-60
HOP-62 = test system: HOP-62
HOP-92 = test system: HOP-92
HT-29 = test system: HT-29
Hs-578T = test system: Hs-578T
KM12 = test system: KM12
M14 = test system: M14
MDA-MB-231 = test system: MDA-MB-231
MDA-MB-435 = test system: MDA-MB-435
MOLT-4 = test system: MOLT-4
Malme-3M = test system: Malme-3M
NCI-H226 = test system: NCI-H226
NCI-H23 = test system: NCI-H23
NCI-H460 = test system: NCI-H460
NCI-H522 = test system: NCI-H522
NCI/ADR-RES = test system: NCI/ADR-RES
OVCAR-3 = test system: OVCAR-3
OVCAR-4 = test system: OVCAR-4
OVCAR-5 = test system: OVCAR-5
OVCAR-8 = test system: OVCAR-8
PC-3 = test system: PC-3
RXF 393 = test system: RXF 393
SF-268 = test system: SF-268
SF-295 = test system: SF-295
SF-539 = test system: SF-539
SK-MEL-2 = test system: SK-MEL-2
SK-MEL-5 = test system: SK-MEL-5
SK-OV-3 = test system: SK-OV-3
SNB-19 = test system: SNB-19
SNB-75 = test system: SNB-75
SR = test system: SR
SW-620 = test system: SW-620
T47D = test system: T47D
TK-10 = test system: TK-10
U-251 = test system: U-251
UACC-257 = test system: UACC-257
UACC-62 = test system: UACC-62
UO-31 = test system: UO-31
CCRF-CEM = test system: CCRF-CEM
IGROV-1 = test system: IGROV-1
LOX IMVI = test system: LOX IMVI
MCF7 = test system: MCF7
RPMI-8226 = test system: RPMI-8226
SK-MEL-28 = test system: SK-MEL-28
SN12C = test system: SN12C

CC(=N/NC(=S)Nc1c(C)n(C)n(-c2ccccc2)c1=O)/C(C)=N\NC(=S)Nc1c(C)n(C)n(-c2ccccc2)c1=O
GI50 (786-0): > 100 µM (inactive) | GI50 (A498): > 100 µM (inactive) | GI50 (A549): > 100 µM (inactive) | GI50 (ACHN): > 100 µM (inactive) | GI50 (BT-549): > 100 µM (inactive) | GI50 (CAKI-1): > 100 µM (inactive) | GI50 (COLO 205): > 100 µM (inactive) | GI50 (DU-145): > 100 µM (inactive) | GI50 (EKVX): > 100 µM (inactive) | GI50 (HCC 2998): > 100 µM (inactive) | GI50 (HCT-116): > 100 µM (inactive) | GI50 (HCT-15): > 100 µM | GI50 (HL-60): > 100 µM (inactive) | GI50 (HOP-62): > 100 µM (inactive) | GI50 (HOP-92): > 100 µM (inactive) | GI50 (HT-29): > 100 µM (inactive) | GI50 (Hs-578T): > 100 µM (inactive) | GI50 (KM12): > 100 µM (inactive) | GI50 (M14): > 100 µM (inactive) | GI50 (MDA-MB-231): > 100 µM (inactive) | GI50 (MDA-MB-435): > 100 µM (inactive) | GI50 (MOLT-4): > 100 µM (inactive) | GI50 (Malme-3M): > 100 µM (inactive) | GI50 (NCI-H226): > 100 µM (inactive) | GI50 (NCI-H23): > 100 µM (inactive) | GI50 (NCI-H460): > 100 µM (inactive) | GI50 (NCI-H522): > 100 µM (inactive) | GI50 (NCI/ADR-RES): > 100 µM (inactive) | GI50 (OVCAR-3): > 100 µM (inactive) | GI50 (OVCAR-4): > 100 µM (inactive) | GI50 (OVCAR-5): > 100 µM (inactive) | GI50 (OVCAR-8): > 100 µM (inactive) | GI50 (PC-3): > 100 µM (inactive) | GI50 (RXF 393): > 100 µM (inactive) | GI50 (SF-268): > 100 µM (inactive) | GI50 (SF-295): > 100 µM (inactive) | GI50 (SF-539): > 100 µM (inactive) | GI50 (SK-MEL-2): > 100 µM (inactive) | GI50 (SK-MEL-5): > 100 µM (inactive) | GI50 (SK-OV-3): > 100 µM (inactive) | GI50 (SNB-19): > 100 µM (inactive) | GI50 (SNB-75): > 100 µM (inactive) | GI50 (SR): > 100 µM (inactive) | GI50 (SW-620): > 100 µM (inactive) | GI50 (T47D): > 100 µM (inactive) | GI50 (TK-10): > 100 µM (inactive) | GI50 (U-251): > 100 µM (inactive) | GI50 (UACC-257): > 100 µM (inactive) | GI50 (UACC-62): > 100 µM (inactive) | GI50 (UO-31): > 100 µM (inactive)

Cc1ccccc1[P+](C)(c1ccccc1C)c1ccccc1C
GI50 (786-0): 24.8 µM (inactive) | GI50 (A498): 18.5 µM (inactive) | GI50 (A549): 13.1 µM (inactive) | GI50 (ACHN): 15.8 µM (inactive) | GI50 (BT-549): 7.48 µM (inactive) | GI50 (CCRF-CEM): 0.0333 µM (active) | GI50 (COLO 205): 10.6 µM (inactive) | GI50 (DU-145): 29.2 µM (inactive) | GI50 (EKVX): 5.07 µM (inactive) | GI50 (HCC 2998): 2.77 µM (inactive) | GI50 (HCT-116): 6.79 µM (inactive) | GI50 (HCT-15): 19.9 µM | GI50 (HOP-62): 23.9 µM (inactive) | GI50 (HOP-92): 12.7 µM (inactive) | GI50 (HT-29): 5.85 µM (inactive) | GI50 (Hs-578T): 17.8 µM (inactive) | GI50 (IGROV-1): 14.9 µM (inactive) | GI50 (LOX IMVI): 14.1 µM (inactive) | GI50 (M14): 7.46 µM (inactive) | GI50 (MCF7): 14 µM (inactive) | GI50 (MDA-MB-231): 12.6 µM (inactive) | GI50 (MDA-MB-435): 4.54 µM (inactive) | GI50 (Malme-3M): 8.18 µM (inactive) | GI50 (NCI-H226): 14.6 µM (inactive) | GI50 (NCI-H23): 10.3 µM (inactive) | GI50 (NCI-H460): 20 µM (inactive) | GI50 (NCI-H522): 5.24 µM (inactive) | GI50 (NCI/ADR-RES): 25.5 µM (inactive) | GI50 (OVCAR-3): 7.94 µM (inactive) | GI50 (OVCAR-4): 2.96 µM (inactive) | GI50 (OVCAR-5): 13.6 µM (inactive) | GI50 (OVCAR-8): 15 µM (inactive) | GI50 (PC-3): 14.3 µM (inactive) | GI50 (RPMI-8226): 1.21 µM (inactive) | GI50 (RXF 393): 36.9 µM (inactive) | GI50 (SF-268): 34.8 µM (inactive) | GI50 (SF-539): 16.5 µM (inactive) | GI50 (SK-MEL-28): 11.6 µM (inactive) | GI50 (SK-MEL-2): 13.4 µM (inactive) | GI50 (SK-MEL-5): 4.84 µM (inactive) | GI50 (SK-OV-3): 33.2 µM (inactive) | GI50 (SN12C): 14.7 µM (inactive) | GI50 (SNB-19): 8.69 µM (inactive) | GI50 (SNB-75): 12.6 µM (inactive) | GI50 (SW-620): 13.6 µM (inactive) | GI50 (T47D): 3.06 µM (inactive) | GI50 (TK-10): 8.26 µM (inactive) | GI50 (U-251): 6.3 µM (inactive) | GI50 (UACC-257): 2.58 µM (inactive) | GI50 (UACC-62): 5.79 µM (inactive) | GI50 (UO-31): 17.7 µM (inactive)
